The nature of series [1]: Influence on bile secretion (choleresis) of the narcotized rat. As to conditions: in vivo; LD50 mouse i.p. / ED50 rat i.d.; Table II; read-out: TQ (LD50/ED50), bile secretion. Type of series: in vivo, rat (male Sprague-Dawley). The text has this: (§1) Male Sprague-Dawley rats (body weight from 250 to 300 g) are narcotized with 1.2 g/kg urethane i.m. Then the abdominal cavity is opened medially, the bile duct is ligatured shortly above the place where it leads into the duodenum and also near to the hepatic duct, and both sections are catheterized towards the liver.
(§2) As in the rat all the pancreatic ducts lead out into the central section of the bile duct; it is possible in this way to discharge the pancreatic secretion separately from the distal (ligatured) section and the bile separately from the proximal section of the bile duct.
(§3) The quantities of pancreatic juice and bile juice obtained are measured at intervals of 30 minutes over a period from 2 hours before to 3 hours after the intraduodenal (V. jugularis externa) administration of the compounds to be tested (quantity of liquid administered 5 ml/kg).
(§4) The body temperature of the animals is maintained at 36° to 38° C. by means of electric blankets and radiation; the temperature is monitored rectally.
(§5) The liquid volumes of the 30-minute fractions after the administration of the substance are related in each case to the quantity of bile or pancreatic juice secreted prior to the application of the substance (=100%, mean of the last two measurements). The maximum percentage increase in the pancreatic or bile secretion is represented in dependence upon dose, and from this the ED50 is determined by interpolation.

A further series deals with bile secretion. The series is described as above. Type of series: in vivo, rat (male Sprague-Dawley). As to conditions: 0.5 h; narcotized rat, i.d.; liquid volume, 30 min fraction; Table II; read-out: ED50 bile secretion (dose which brings about an increase in the bile secretion by a maximum of 50%).
Excerpt: as §1, §2, §3, §4, §5

The test system of the next series is liver damage by CCl4. The series is described as follows: Antihepatotoxic effect: duration of hexobarbital sleep of the rat after liver damage by CCl4. Particulars: Rattus norvegicus, po. As to the method:
(§6) The compounds to be tested are administered 1 hour prior to the administration of CCl4 orally in a liquid volume of 10 ml/kg.
(§7) The antihepatotoxic effect of the compounds to be tested (sodium salts in aqueous solution) is determined by the reduction of the prolongation of sleeping period caused by the CCl4 liver cell damage in the groups treated, as compared with the prolongation of the sleeping period of the CCl4 control group (=100%). […]

Assay in series [2]: as above
Particulars: rat, in vivo. As for the experimental part:
as §6, §7

Series [3] can be described thus: Determination of toxicity (lethal action on the mouse after intraperitoneal application). It is filed as in vivo. Particulars: in vivo, ip. As to the method:
(§8) The toxicity investigations are carried out on female NMRI mice (body weight 22 to 26 g). The animals (5 animals per dose) are given food and water ad lib. Different doses of the substances are administered intraperitoneally. The duration of observation is 14 days. The LD50, i.e. the dose at which 50% of the animals die, is determined graphically from the dose/effect curve.

The next series concerns mouse. Described as above. It is filed as in vivo. Particulars: 20160 min. As to the method:
as §8

Series [4] in a line: Antiulcerogenic (stomach-protective) action, pylorus ligature and acetylsalicylic acid. Type of series: in vivo, rat (female). As to conditions: in vivo; LD50 mouse i.p. / ED50 rat i.d.; Table IV; read-out: TQ (LD50/ED50), antiulcerogenic action. A digest of the protocol: (§9)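 Fasted female rats (180-200 g) given pylorus ligature plus oral acetylsalicylic acid, 100 mg/10 ml/kg. Compounds given intraduodenally right after ligature. Stomachs examined at 4 h under 10× magnification; ulcer index = severity score × ulcer number, with effect expressed as % reduction of mean index against control.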

Another series relates to stomach ulcer. The description is as above. Type of series: in vivo, rat (female). Particulars: 4 h; rat, intraduodenally; Table IV; read-out: ED50 antiulcerogenic action (dose which reduces the mean ulcer index by 50%). A digest of the protocol: as §9
The nature of series [5]: Influence on pancreatic secretion of the narcotized rat. Particulars: in vivo, LD50 mouse i.p. / ED50 rat i.d. It is filed as in vivo, rat (male Sprague-Dawley).
In another series the test system is pancreatic secretion. The description is as above. Particulars: 0.5 h, narcotized rat, i.d., liquid volume. It is filed as in vivo, rat (male Sprague-Dawley).
Series [6] concerns glucose formation from lactate and pyruvate in isolated perfused liver. The experiment in a line: Inhibition of the formation of glucose from lactate and pyruvate in the isolated perfused rat liver. More on the design: species or system rat (male Sprague-Dawley). Particulars: Table XIII. As for the experimental part: For this purpose young male Sprague-Dawley rats (160 to 200 g) are used. The rats are kept in cages of up to 5 animals in a temperature-controlled room (23° C.) with a fixed day/night rhythm (12/12 hours).
Food is withheld from the animals for from 20 to 22 hours prior to the operation. They are allowed to take water ad lib. The operation and the perfusion of the liver are carried out using the technique of R. Scholz et al. [Eur. J. Biochem. 38 (1973) 64 to 72]. The perfusion liquid used is Krebs-Henseleit bicarbonate buffer (pH 7.4), which is saturated with an oxygen/carbon dioxide mixture (95/5) and contains 1.6 mmol/liter of L-lactate and 0.2 mmol/liter of pyruvate. The perfusion liquid is pumped into the liver via a cannula inserted into the portal vein. The effluent perfusion liquid is collected via a cannula inserted into the Vena cava. The liver is perfused for about 2 hours. The test compounds are infused for 16 minutes each from the 32nd to the […] after the perfusion in increasing concentrations (0.02 to 1.00 mmol/liter).
Samples of the effluent perfusion liquid are collected at one-minute intervals and analyzed for glucose, lactate and pyruvate (using standard enzymatic methods). The percentages shown in Table VIII relate to the condition occurring before and after the administration of the compounds, the changes caused solely by lactate and pyruvate being set as being equal to 100%.

One may read the ED50 as the midpoint of the dose-response relation. One may read the LD50 as the dose expected to kill half of the subjects tested.

Structures are written as SMILES. Where two headings read alike, the source gives them in different places.

For the molecule `C#CC(C)(C)N(CCCC(=O)O)C(=O)c1ccc(Cl)cc1` [Serial No. 3, N-(p-chloro)benzoyl-4-[(2-methyl-3-butyn-2-yl)amino]butyric acid], the selectivity ratio in [1] is more than 40; in series [2] (TQ (LD50/ED50), antihepatotoxic effect, LD50 mouse i.p. / ED50 rat p.o., Table III) it was more than 10. In addition, the ED50 with bile secretion was found to be 25 mg/kg; with liver damage by CCl4 (read-out: ED50 antihepatotoxic effect (dose which shortens the hexobarbital narcosis by 50%)), 100 mg/kg. Further, the LD50 at 336 h in series [3] (mouse, Table II) was more than 1000 mg/kg. In addition, the LD50 in the series with mouse (mouse, i.p., Table III) is on record as more than 1000 mg/kg.

Regarding `COc1ccc(Cl)cc1C(=O)N(CCCCCC(=O)O)c1ccccc1-c1ccccc1` [Serial No. 30, 6-[5-chloro-2-methoxy-N-(biphenyl-2-yl)benzamido]caproic acid], the selectivity ratio in series [4] is more than 20; in [2] (TQ LD50/ED25, antihepatotoxic effect, LD50 mouse i.p. / ED25 rat p.o., Table V) it was more than 20; in series [5] (Table VII, read-out: TQ [LD50/ED50], pancreatic secretion), more than 200. In addition, the ED50 in the series with stomach ulcer was 10 mg/kg; with pancreatic secretion (30 min fraction, Table VII, read-out: ED50 pancreatic secretion (dose which brings about an increase in pancreatic secretion of a maximum of 50%)) it was less than 1 mg/kg. Moreover, the ED25 in the series with liver damage by CCl4 (read-out: ED25 antihepatotoxic effect (shortens hexobarbital narcosis by 25%)) worked out at 10 mg/kg. The same molecule showed an LD50 at 336 h in [3] (mouse, Table IV) of more than 200 mg/kg. The LD50 is recorded as more than 200 mg/kg in the series with mouse (mouse i.p., Table V) and more than 200 mg/kg with mouse (mouse i.p., Table VII).

On to `CC(C)C(=O)N(CCCC(=O)O)C1CCCc2ccccc21` (stereo not drawn) [Serial No. 50, 4-[N-(1,2,3,4-tetrahydro-1-naphthyl)isobutyramido]butyric acid], for which, in series [6] (0.2 mmol/liter in the perfusate, isolated perfused liver of fasting rats), the “Glucose formation, % change” value is on record as -33%. Besides, in series [6] (from 4 concentrations, 0.02 to 1.00 mmol/liter), the “ED50 inhibition of formation of glucose from lactate and pyruvate” value amounted to 97 µg/mL. In [5] (Table X, read-out: TQ LD50/ED50, pancreatic secretion), the selectivity ratio is not below 66.7. In the series on pancreatic secretion (30 minute fraction, Table X, read-out: ED50 pancreatic secretion (dose which brings about an increase in pancreatic secretion by a maximum of 50%)), the ED50 was approximately 3 mg/kg. In series [3] (mouse i.p., Table X), this molecule registered an LD50 at 336 h of more than 200 mg/kg. Besides, the “LD50 (i.p.)” value in the series with mouse (mouse, i.p., Table XIII) was more than 200 mg/kg.

Values taken from patent US4243678A, “Acylhydrocarbylaminoalkanoic acids, compositions and uses” (Byk Gulden Lomberg Chemische Fabrik GmbH, priority 1977, dated 1981).
